The term Ki denotes the dissociation constant of the complex between target and ligand, obtained from inhibition or displacement. A word on the kinact: it is the maximal first-order rate at which the target is inactivated.

Experimental findings from PMC11645267, “Novel pharmacologic inhibition of lysine-specific demethylase 1 as a potential therapeutic for glioblastoma” (Cancer Gene Therapy, 2024) are described below.

One test concerns KINGS1. Put plainly: Western blot of global histone modifications. The note with it: KINGS1, 5 μM, 96 h. The format is cell-based. On the procedure: The effects of S2172 on global histone modifications in GSCs were examined using western blot analysis. GSC cells were treated with 5 μM of S2172 since […] of the cells are still viable at this concentration (Fig. 2, Supplementary Fig. S1E). […] Treatment of GSCs with S2172 increased the overall levels of H3K4me2 as well as H3K9me2. However, these changes were not statistically significant (Fig. 2A, B). […]
(§1) instructions. For GSC cells, the CellTiter-Glo 3D Viability Assay (Promega, Madison, WI, USA) was used to measure the living cells. All proliferation experiments were repeated […]
The density of bands was quantified using ImageJ software (https://imagej.nih.gov/ij/). […]
When mice were scanned with MRI, mice were anesthetized with isoflurane (3% in air) and placed in MRS 3017 Benchtop MRI Systems (MR Solutions, Guildford, UK). Using MRI images, tumor volumes were obtained by compiling tumor areas from all slices that contained tumors and calculated by ImageJ software (https://imagej.nih.gov/ij/) {Towner, […]
B. Western blot analysis of LSD1,MYC, Nestin, SOX2,and ACTB in same cells as shown in panel A. ACTB was used as a loading control. […] Quantification of signal intensities of the Western blot (right panel). […] Right panel: Quantification of band signal intensities from the Western blot. […]
(In general: In western blotting, separated proteins are transferred to a membrane and probed.)

A further test concerns F3. Put plainly: Stemness marker expression (qPCR, western blot). The test is classed as cell-based. The note with it: F3, 5 μM, 96 h.
Excerpt: Super-enhancers consist of enhancer clusters with abundant binding of transcription factors and are highly enriched with H3K27ac marks. The H3K4me2 increased regions included the MYC locus and H3K4me2 de novo regions comprised Nestin and SOX2 loci (Fig. 2F, Supplementary Fig. S5A). These regions were also identified as super-enhancers in GSCs using data from our previous study (Fig. 2F). Compared to the large increase in H3K4me2 in these regions, changes in H3K4me3 were subtle after S2172 treatment (only 2582 regions were acquired modification) (Fig. 2C). Increasing the me2/me3 ratio at H3K4 is associated with reduced gene expression. […]
as §1
A. Left panel: Western blot analysis of H3K4me1, H3K4me2, H3K4me3, and H3K9me2 after treatment with either DMSO or S2172 5μM for 96 h in normal neural stem cell F3 . […] Right panel: Quantification of signal intensities of the Western blot. […]
C. […] Right panel: Quantification of band signal intensities from the Western blot.
Error bars indicate the SD; n = 3. […] The ratio was calculated by dividing the intensity of the cleaved PARP band by the full-length PARP band. […]
In general terms: Quantitative PCR measures a nucleic acid by following its amplification.

The target of a further test is LSD1 (Homo sapiens, UniProt O60341). Kind of test: Enzyme inhibition assay (in vitro peroxidase assay) against LSD1.

Procedure for LSD1: Enzyme inhibition assays against LSD1, LSD2, MAO-A, and MAO-B were performed as previously described [25]. Technical replicates, n = 3.

As for `NC1CCC(NC2CC2c2cc(F)cc(F)c2OCc2ccccc2)CC1` (centres unmarked) [S2172], in the test on KINGS1, the “levels of H3K4me1, H3K4me2, H3K4me3, and H3K9me2” value is reported as “slight increase”. The “expression levels of stemness markers” value in the test on F3 is “not significantly affected”. Affinity on LSD1 was put at a Ki of 270 ± 60 nM. The kinact at LSD1 (read-out: kinact LSD1) was found to be 0.0026 ± 0.0002 s⁻¹. The kinact/KI on LSD1 (read-out: kinact/Ki LSD1) was determined as 9800 ± 570 M⁻¹ s⁻¹.
